The values that follow come from ChEMBL document CHEMBL1158151, “Cactus Alkaloids. XXXIX. A Glucotetrahydroiosquinoline From the Mexican Cactus, Pterocereus gaumeri” (1979).

The nature of this test: Cytotoxicity against human 9KB cells. The test is classed as functional. The following applies: read-out: ED50 (the source's name).

In brackets after ≈: the same amount, converted by molar mass.

In the case of `COc1cc2c(c(O)c1OC)CCN(C)C2CO` (configuration not stated) [DEGLUCOPTEROCEREINE], the EC50 amounted to 16 µg/mL (≈ 63.2 µM). Consider `COc1cc2c(c(O[C@@H]3O[C@H](CO)[C@@H](O)[C@H](O)[C@H]3O)c1OC)CCN(C)C2CO` (some centres not stated) [PTEROCEREINE], for which the EC50 is over 100 µg/mL.
